Results: ChEMBL document CHEMBL4321794, “Discovery and Optimization of 2-Arylquinazolin-4-ones into a Potent and Selective Tankyrase Inhibitor Modulating Wnt Pathway Activity” (J Med Chem, 2019)
pIC50: −log10 of the molar value.

How the values were obtained:
[1] = molecular target: T1, Protein mono-ADP-ribosyltransferase TIPARP (Homo sapiens, UniProt Q7Z3E1); assay: Inhibition of N-terminal FLAG-tagged recombinant human PARP7 (400 to 657 residues) expressed in Baculovirus infected Sf9 cells using biotinylated substrate after 1 hr by chemiluminescence method
T1 sequence (Q7Z3E1 whole entry): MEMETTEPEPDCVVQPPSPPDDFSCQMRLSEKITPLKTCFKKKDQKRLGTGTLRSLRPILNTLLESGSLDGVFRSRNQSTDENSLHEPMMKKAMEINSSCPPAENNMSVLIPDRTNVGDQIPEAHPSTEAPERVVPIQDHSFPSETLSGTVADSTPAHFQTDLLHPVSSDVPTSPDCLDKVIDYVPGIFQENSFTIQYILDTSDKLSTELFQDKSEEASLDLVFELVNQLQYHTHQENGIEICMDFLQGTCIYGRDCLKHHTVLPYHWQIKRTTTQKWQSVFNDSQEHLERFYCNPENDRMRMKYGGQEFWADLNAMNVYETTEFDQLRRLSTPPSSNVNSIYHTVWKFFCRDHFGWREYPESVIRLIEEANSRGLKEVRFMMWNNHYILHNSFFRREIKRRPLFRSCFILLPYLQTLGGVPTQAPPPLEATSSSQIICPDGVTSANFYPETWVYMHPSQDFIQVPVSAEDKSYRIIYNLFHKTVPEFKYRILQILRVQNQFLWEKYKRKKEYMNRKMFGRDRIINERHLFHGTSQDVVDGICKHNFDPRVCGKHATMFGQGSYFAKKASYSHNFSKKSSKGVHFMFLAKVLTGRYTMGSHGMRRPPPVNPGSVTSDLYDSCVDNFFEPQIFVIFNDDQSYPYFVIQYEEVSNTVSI

[2] = molecular target: Poly [ADP-ribose] polymerase 2 (Homo sapiens, UniProt Q9UGN5); assay: Inhibition of N-terminal GST-tagged recombinant human PARP2 (2 to 583 residues) expressed in Baculovirus infected Sf9 cells using biotinylated substrate after 1 hr by chemiluminescence method
[3] = molecular target: T2, Protein mono-ADP-ribosyltransferase PARP3 (Homo sapiens, UniProt Q9Y6F1); assay: Inhibition of N-terminal GST-tagged recombinant full length human PARP3 expressed in Baculovirus infected Sf9 cells using biotinylated substrate after 1 hr by chemiluminescence method
T2 sequence (Q9Y6F1 whole entry): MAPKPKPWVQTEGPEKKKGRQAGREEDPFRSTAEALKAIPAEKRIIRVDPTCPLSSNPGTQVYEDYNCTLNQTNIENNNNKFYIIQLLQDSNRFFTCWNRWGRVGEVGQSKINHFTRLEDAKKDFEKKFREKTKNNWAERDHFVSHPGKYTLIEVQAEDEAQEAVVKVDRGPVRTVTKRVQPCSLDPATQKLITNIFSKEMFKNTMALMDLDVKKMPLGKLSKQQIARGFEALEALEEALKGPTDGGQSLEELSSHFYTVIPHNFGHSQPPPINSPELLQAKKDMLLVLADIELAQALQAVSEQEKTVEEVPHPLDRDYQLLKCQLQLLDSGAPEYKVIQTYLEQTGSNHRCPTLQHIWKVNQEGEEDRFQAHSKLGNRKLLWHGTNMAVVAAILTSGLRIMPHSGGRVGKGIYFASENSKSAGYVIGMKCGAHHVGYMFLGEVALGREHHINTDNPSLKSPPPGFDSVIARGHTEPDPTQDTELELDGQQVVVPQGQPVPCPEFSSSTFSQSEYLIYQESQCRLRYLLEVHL

[4] = Time at which free-drug concentration exceeds in vitro cellular EC50 for inhibition of tankyrase 1/2 in human DLD1 cells assessed as increase in axin2 accumulation in mouse at 30 mg/kg, po; format: organism-based; settings: in vivo
[5] = molecular target: T3, Protein mono-ADP-ribosyltransferase PARP11 (Homo sapiens, UniProt Q9NR21); assay: Inhibition of human N-terminal GST-tagged PARP11 (8 to 338 residues) expressed in baculovirus infected Sf9 insect cells using biotinylated substrate by chemiluminescence method
T3 sequence (Q9NR21 whole entry): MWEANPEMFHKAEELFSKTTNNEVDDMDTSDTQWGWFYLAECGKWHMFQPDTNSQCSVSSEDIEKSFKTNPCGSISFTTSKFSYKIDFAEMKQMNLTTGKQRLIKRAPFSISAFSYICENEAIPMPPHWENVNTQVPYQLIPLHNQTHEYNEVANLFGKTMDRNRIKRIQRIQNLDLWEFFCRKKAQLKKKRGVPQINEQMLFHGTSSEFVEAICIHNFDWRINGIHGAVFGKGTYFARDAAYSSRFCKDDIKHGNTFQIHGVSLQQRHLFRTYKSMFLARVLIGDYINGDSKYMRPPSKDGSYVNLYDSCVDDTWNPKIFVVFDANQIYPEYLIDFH

[6] = molecular target: T4, Protein mono-ADP-ribosyltransferase PARP10 (Homo sapiens, UniProt Q53GL7); assay: Inhibition of human N-terminal FLAG-tagged/C-terminal Strep-tagged PARP10 (805 to 1025 residues) expressed in baculovirus infected Sf9 insect cells using biotinylated substrate by chemiluminescence method
T4 sequence (Q53GL7 whole entry): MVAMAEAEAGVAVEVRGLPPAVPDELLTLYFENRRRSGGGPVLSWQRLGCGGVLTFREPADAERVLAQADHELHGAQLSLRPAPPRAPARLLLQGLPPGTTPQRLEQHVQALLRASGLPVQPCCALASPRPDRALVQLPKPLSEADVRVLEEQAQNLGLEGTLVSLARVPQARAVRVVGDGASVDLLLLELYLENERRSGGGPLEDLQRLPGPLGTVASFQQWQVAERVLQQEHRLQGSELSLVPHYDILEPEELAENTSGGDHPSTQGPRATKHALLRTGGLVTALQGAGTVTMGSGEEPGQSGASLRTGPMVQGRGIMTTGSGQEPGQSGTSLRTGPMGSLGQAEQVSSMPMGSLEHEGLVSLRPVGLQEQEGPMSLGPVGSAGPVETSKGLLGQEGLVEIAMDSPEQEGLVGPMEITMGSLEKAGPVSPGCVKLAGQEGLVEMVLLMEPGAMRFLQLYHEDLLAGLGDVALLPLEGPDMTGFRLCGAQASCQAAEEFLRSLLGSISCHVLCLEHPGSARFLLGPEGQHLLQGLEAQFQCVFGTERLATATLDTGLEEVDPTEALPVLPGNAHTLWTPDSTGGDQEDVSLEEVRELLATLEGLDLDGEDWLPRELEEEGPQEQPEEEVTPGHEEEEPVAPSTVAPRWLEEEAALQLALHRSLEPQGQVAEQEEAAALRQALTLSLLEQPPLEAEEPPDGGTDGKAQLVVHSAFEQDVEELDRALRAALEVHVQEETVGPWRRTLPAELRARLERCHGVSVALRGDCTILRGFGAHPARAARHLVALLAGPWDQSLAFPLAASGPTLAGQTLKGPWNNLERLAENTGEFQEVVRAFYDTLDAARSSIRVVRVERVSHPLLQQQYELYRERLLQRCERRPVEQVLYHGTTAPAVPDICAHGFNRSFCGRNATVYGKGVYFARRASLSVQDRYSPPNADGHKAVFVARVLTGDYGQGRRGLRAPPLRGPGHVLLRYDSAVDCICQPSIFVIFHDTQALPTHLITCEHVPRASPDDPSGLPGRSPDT

[7] = Intrinsic clearance in mouse hepatocytes assessed per million cells; format: ADME, cell-based, Hepatocyte; settings: read-out: CLH

Poly [ADP-ribose] polymerase 2, sequence (Q9UGN5 whole entry, the tested form may be a part): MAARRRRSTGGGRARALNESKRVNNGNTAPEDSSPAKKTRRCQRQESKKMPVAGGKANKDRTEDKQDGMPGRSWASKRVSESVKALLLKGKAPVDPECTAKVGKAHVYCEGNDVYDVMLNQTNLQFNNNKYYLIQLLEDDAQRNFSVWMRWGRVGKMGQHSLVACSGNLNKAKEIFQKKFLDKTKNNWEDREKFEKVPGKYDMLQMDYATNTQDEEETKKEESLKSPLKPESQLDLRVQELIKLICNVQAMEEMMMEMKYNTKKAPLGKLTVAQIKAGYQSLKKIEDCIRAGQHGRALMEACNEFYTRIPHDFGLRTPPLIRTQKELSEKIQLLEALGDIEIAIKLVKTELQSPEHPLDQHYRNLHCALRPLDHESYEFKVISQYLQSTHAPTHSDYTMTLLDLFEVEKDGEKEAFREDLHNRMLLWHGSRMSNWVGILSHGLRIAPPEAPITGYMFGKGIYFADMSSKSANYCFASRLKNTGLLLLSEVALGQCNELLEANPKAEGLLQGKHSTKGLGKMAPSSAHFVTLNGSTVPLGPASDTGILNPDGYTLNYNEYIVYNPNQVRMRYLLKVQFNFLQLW

- pIC50 [1]: < 5.00
- pIC50 [2]: 6.00
- pIC50 [3]: 5.72
- T>fEC50 [4]: >= 20 hr
- pIC50 [5]: < 5.00
- pIC50 [6]: < 5.00
- hepatocyte CLint [7]: 15.2 µL/min/1e6 cells
Compound: CC(C)(O)c1ccc(-c2nc3c(F)cc(F)cc3c(=O)[nH]2)cc1
